Like-named read-outs stand apart in the source and are kept apart here. A value given as a limit tells only on which side of the number the result lay.

The subject of the test is β-catenin-TCF-mediated reporter transcription activity in Colo 205 cells. As to the kind of experiment: Colo 205 reporter assay (TCF/LEF luciferase). Type of test: cell-based. A digest of the protocol: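 Luciferase signal from a TCF/LEF-driven reporter, stably integrated in Colo 205 colon cancer cells, was measured 5 h after compound addition.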
The mark [1] stands for this setting: Homo sapiens, COLO 205, 5 h, Colo 205 TCF/LEF luciferase reporter, five hours after addition of compound, read-out: TCF reporter Colo205 IC50.
Setting [2] is: Homo sapiens, COLO 205, 5 h, R-isomer at C2 (corresponding to C2 S-isomer), Colo 205 TCF/LEF luciferase reporter, 5 h, read-out: TCF reporter Colo205 IC50.

Regarding `Cc1nc(NCc2cnn(Cc3ccnc(C#N)c3)c2)nc2c1NC(=O)[C@H](C)N2C` [Compound 204, (7S)-4-((4-(((4,7,8-trimethyl-6-oxo-5,6,7,8-tetrahydropteridin-2-yl)amino)methyl)-1H-pyrazol-1-yl)methyl)picolinonitrile], the IC50 under setting [1] was at least 5000 nM.
`Cc1nc(NCc2cnn(Cc3ccc(C(C)(C)C#N)nc3)c2)nc2c1NC(=O)[C@H](C(C)C)N2C` [Compound 470, (S)-2-(5-((4-(((7-isopropyl-4,8-dimethyl-6-oxo-5,6,7,8-tetrahydropteridin-2-yl)amino)methyl)-1H-pyrazol-1-yl)methyl)pyridin-2-yl)-2-methylpropanenitrile]: the IC50 under setting [1] is below 300 nM.
Still for that read-out and setting: to `Cc1nc(NCc2cnn(Cc3cncc(C(F)(F)F)c3)c2)nc2c1NC(=O)[C@H](C)N2C` [Compound 206, (7S)-4,7,8-trimethyl-2-(((1-((5-(trifluoromethyl)pyridin-3-yl)methyl)-1H-pyrazol-4-yl)methyl)amino)-7,8-dihydropteridin-6(5H)-one] belongs below 300 nM; to `Cc1nc(CC(=O)N2CC(Nc3nc(C)c4c(n3)N(C)[C@@H](C(C)C)C(=O)N4)C2)c(C)s1` [Compound 628, (S)-2-((1-(2-(2,5-dimethylthiazol-4-yl)acetyl)azetidin-3-yl)amino)-7-isopropyl-4,8-dimethyl-7,8-dihydropteridin-6(5H)-one], at least 5000 nM; to `CCc1noc(C)c1Cn1cc(CNc2nc(C)c3c(n2)N(C)[C@@H](C)C(=O)N3)cn1` [Compound 158, (7S)-2-(((1-((3-ethyl-5-methylisoxazol-4-yl)methyl)-1H-pyrazol-4-yl)methyl)amino)-4,7,8-trimethyl-7,8-dihydropteridin-6(5H)-one], below 300 nM.
On to `Cc1ccc(O[C@H]2C[C@H](Nc3nc(C)c4c(n3)N(C)[C@@H](C)C(=O)N4C)C2)cc1` [Compound 338, (7S)-4,5,7,8-tetramethyl-2-((trans-3-(p-tolyloxy)cyclobutyl)amino)-7,8-dihydropteridin-6(5H)-one], for which the IC50 under setting [1] was 1000 to 5000 nM.
The same measure, in the same setting: to `COc1c(F)cc(O[C@H]2C[C@H](Nc3nc(C)c4c(n3)N(C)[C@@H](C)C(=O)N4)C2)cc1F` [Compound 287, (7S)-2-((trans-3-(3,5-difluoro-4-methoxyphenoxy)cyclobutyl)amino)-4,7,8-trimethyl-7,8-dihydropteridin-6(5H)-one] belongs below 300 nM.
The same measure, in the same setting: to `Cc1nc(N[C@H]2C[C@@H](Cn3ccc(Cl)n3)C2)nc2c1NC(=O)[C@H](C(C)C)N2C` [Compound 583, (S)-2-((cis-3-((3-chloro-1H-pyrazol-1-yl)methyl)cyclobutyl)amino)-7-isopropyl-4,8-dimethyl-7,8-dihydropteridin-6(5H)-one] belongs below 300 nM; to `Cc1nc(NCc2cnn(Cc3ccc(F)cc3C(F)(F)F)c2)nc2c1NC(=O)[C@H](C)N2C` [Compound 67, (7S)-2-(((1-(4-fluoro-2-(trifluoromethyl)benzyl)-1H-pyrazol-4-yl)methyl)amino)-4,7,8-trimethyl-7,8-dihydropteridin-6(5H)-one], below 300 nM.
Turning to `CC(=O)NCCCC[C@H](N)C(=O)N(Cc1cnn(Cc2ccc(C(F)(F)F)nc2)c1)c1nc(C)c2c(n1)N(C)[C@@H](C)C(=O)N2` [Compound 404, (7S)-6-acetamido-2-amino-N-((1-((6-(trifluoromethyl)pyridin-3-yl)methyl)-1H-pyrazol-4-yl)methyl)-N-((S)-4,7,8-trimethyl-6-oxo-5,6,7,8-tetrahydropteridin-2-yl)hexanamide], the IC50 (Colo 205 cells with stably transfected TCF/LEF luciferase reporter, five hours after addition of compound, read-out: TCF reporter Colo205) was at least 5000 nM.
With `Cc1nc(N[C@H]2C[C@@H](COc3ccc(F)cc3C#N)C2)nc2c1NC(=O)[C@H](C)N2C` [Compound 277, 5-fluoro-2-((cis-3-(((7S)-4,7,8-trimethyl-6-oxo-5,6,7,8-tetrahydropteridin-2-yl)amino)cyclobutyl)methoxy)benzonitrile], the IC50 under setting [1] is below 300 nM.
`Cc1nc(NCc2cnn(Cc3ccc(F)cc3)c2)nc2c1N(C)C(=O)[C@@H](C)N2C` [Compound I-866]: the IC50 under setting [2] was in the range of 300 to 1000 nM.
For `Cc1nc(N[C@H]2C[C@@H](COc3ccc(F)c(F)c3)C2)nc2c1NC(=O)[C@H](C)N2C` [Compound 271, (7S)-2-((cis-3-((3,4-difluorophenoxy)methyl)cyclobutyl)amino)-4,7,8-trimethyl-7,8-dihydropteridin-6(5H)-one], under setting [1], the IC50 was below 300 nM.
The same measure, in the same setting: for `Cc1nc(N[C@@H]2COC[C@H]2Oc2ccc(F)cc2)nc2c1NC(=O)[C@H](C)N2C` (mixture of isomers) [Compound 297, (7S)-2-((trans-4-(4-fluorophenoxy)tetrahydrofuran-3-yl)amino)-4,7,8-trimethyl-7,8-dihydropteridin-6(5H)-one] the value was at least 5000 nM.
Still for that read-out and setting: for `Cc1nc(NC2CN(C(=O)C3CCC(F)(F)CC3)C2)nc2c1NC(=O)[C@H](C(C)C)N2C` [Compound 543, (S)-2-((1-(4,4-difluorocyclohexane-1-carbonyl)azetidin-3-yl)amino)-7-isopropyl-4,8-dimethyl-7,8-dihydropteridin-6(5H)-one] the value was 1000 to 5000 nM; for `COc1ccc(OC[C@H]2C[C@@H](Nc3nc(C)c4c(n3)N(C)[C@@H](C(C)C)C(=O)N4)C2)cn1` [Compound 573, (S)-7-isopropyl-2-((cis-3-(((6-methoxypyridin-3-yl)oxy)methyl)cyclobutyl)amino)-4,8-dimethyl-7,8-dihydropteridin-6(5H)-one], below 300 nM; for `Cc1nc(NCc2cn(Cc3cc(F)c(F)c(F)c3)nn2)nc2c1NC(=O)[C@H](C(C)C)N2C` [Compound 452, (S)-7-isopropyl-4,8-dimethyl-2-(((1-(3,4,5-trifluorobenzyl)-1H-1,2,3-triazol-4-yl)methyl)amino)-7,8-dihydropteridin-6(5H)-one], below 300 nM.
On the same count and under the same terms, to `Cc1nc(NCc2cnn(Cc3ccc(C(C)(C)C)nc3)c2)nc2c1NC(=O)[C@H](C(C)C)N2C` [Compound 469, (S)-2-(((1-((6-(tert-butyl)pyridin-3-yl)methyl)-1H-pyrazol-4-yl)methyl)amino)-7-isopropyl-4,8-dimethyl-7,8-dihydropteridin-6(5H)-one] belongs below 300 nM; to `Cc1nc(NC2CN(C(=O)c3ccc(F)cc3)C2)nc2c1NC(=O)[C@H](C(C)C)N2C` [Compound 548, (S)-2-((1-(4-fluorobenzoyl)azetidin-3-yl)amino)-7-isopropyl-4,8-dimethyl-7,8-dihydropteridin-6(5H)-one], 300 to 1000 nM.
In the case of `COc1c(F)cc(Cn2cc(CNc3nc(C)c4c(n3)N(C)[C@H](C)C(=O)N4)cn2)cc1F` [Compound I-1205], the IC50 under setting [2] is below 300 nM.
Regarding `Cc1nc(N[C@H]2C[C@@H](Cn3nccc3C(F)(F)F)C2)nc2c1NC(=O)[C@H](CO)N2C` [Compound 743, (S)-7-(hydroxymethyl)-4,8-dimethyl-2-(((1s,3R)-3-((5-(trifluoromethyl)-1H-pyrazol-1-yl)methyl)cyclobutyl)amino)-7,8-dihydropteridin-6(5H)-one], the IC50 (Colo 205 TCF/LEF luciferase reporter, five hours after addition of compound, read-out: TCF reporter Colo205 IC50) was in the range of 1000 to 5000 nM.
Regarding `Cc1nc(NCc2cnn(Cc3ccc(C(F)(F)F)nc3)c2)nc2c1NC(=O)C1(COC1)N2C` [Compound 600, 4′,8′-dimethyl-2′-(((1-((6-(trifluoromethyl)pyridin-3-yl)methyl)-1H-pyrazol-4-yl)methyl)amino)-5′,8′-dihydro-6′H-spiro[oxetane-3,7′-pteridin]-6′-one], the IC50 under setting [1] lay within 1000 to 5000 nM.
For `Cc1nc(NCc2cnn(Cc3ccc(C(F)(F)F)nc3)c2)nc2c1NC(=O)[C@@H](C)N2C` [Compound I-1636], the IC50 under setting [2] is 1000 to 5000 nM.
As to `Cc1nc(NCc2cnn(Cc3cc(F)c(F)c(F)c3)c2)nc2c1NC(=O)[C@H](C(C)(C)O)N2C` [Compound 729, (S)-7-(2-hydroxypropan-2-yl)-4,8-dimethyl-2-(((1-(3,4,5-trifluorobenzyl)-1H-pyrazol-4-yl)methyl)amino)-7,8-dihydropteridin-6(5H)-one], the IC50 under setting [1] was below 300 nM.
The same measure, in the same setting: to `CO[C@H](C)[C@H]1C(=O)Nc2c(C)nc(N[C@H]3C[C@@H](N(C)c4cnc(C(F)(F)F)cn4)C3)nc2N1C` [Compound 651, (S)-7-((R)—1-methoxyethyl)-4,8-dimethyl-2-((cis-3-(methyl(5-(trifluoromethyl)pyrazin-2-yl)amino)cyclobutyl)amino)-7,8-dihydropteridin-6(5H)-one] belongs 1000 to 5000 nM; to `Cc1nc(NCc2cnn(Cc3ccc(OCC(F)(F)F)nc3)c2)nc2c1NC(=O)[C@H](C1CC1)N2C` [Compound 435, (7S)-7-cyclopropyl-4,8-dimethyl-2-(((1-((6-(2,2,2-trifluoroethoxy)pyridin-3-yl)methyl)-1H-pyrazol-4-yl)methyl)amino)-7,8-dihydropteridin-6(5H)-one], below 300 nM; to `Cc1nc(NC2CN(C(=O)c3ccc(C(F)(F)F)o3)C2)nc2c1NC(=O)[C@H](C(C)C)N2C` [Compound 621, (S)-7-isopropyl-4,8-dimethyl-2-((1-(5-(trifluoromethyl)furan-2-carbonyl)azetidin-3-yl)amino)-7,8-dihydropteridin-6(5H)-one], 300 to 1000 nM.
Still for that read-out and setting: to `Cc1nc(N[C@H]2C[C@H](Oc3cc(F)c(F)cc3F)C2)nc2c1N(C)C(=O)[C@H](C)N2C` [Compound 294, (7S)-4,5,7,8-tetramethyl-2-((trans-3-(2,4,5-trifluorophenoxy)-cyclobutyl)amino)-7,8-dihydropteridin-6(5H)-one] belongs below 300 nM.
For the molecule `[2H]C([2H])([2H])N1c2nc(NCc3cnn(Cc4ccc(C(F)(F)F)nc4)c3)nc(C)c2NC(=O)[C@@H]1C` [Compound 400, (7S)-4,7-dimethyl-8-(methyl-d3)-2-(((1-((6-(trifluoromethyl)pyridin-3-yl)methyl)-1H-pyrazol-4-yl)methyl)amino)-7,8-dihydropteridin-6(5H)-one], where the note is “Homo sapiens, COLO 205, 5 h, Colo 205 cells with stably transfected TCF/LEF luciferase reporter, five hours after addition of compound, read-out: TCF reporter Colo205”, the IC50 was below 300 nM.

The values are drawn from US20230312587A1, “PTERIDINONE COMPOUNDS AND USES THEREOF” (Vertex Pharmaceutical Incorporated, priority 2018, published 2023).
